Assay results reported in US10017481B2, “Conformationally constrained, fully synthetic macrocyclic compounds” (POLYPHOR AG, priority 2012, dated 2018).

Experiments:
Format in all cases: in vitro ADME
[1] = Metabolic stability assay, CD-1 mouse microsomes; conditions: for Metabolic Stability 60 min mouse/(rat) [% remain.] / half-life at 10 μM: CD-1 mouse microsomes, 10 μM, 37° C.; for half-life at 10 μM: both sexes, 1 mg/ml protein, read-out: Metabolic Stability T ½ [min] mouse/(rat)
Method: (§1) 5. Plasma and Metabolic Stability Assays
(§2) Example compounds were dissolved in DMSO/H2O 90:10 to a final concentration of 10 mM for plasma stability determination and metabolic stability determination.
(§3) The assays were conducted according to literature precedents (F. P. Guengerich, Analysis and Characterization of Enzymes; in: Principles and Methods of Toxicology, A. W. Hayes (Ed.) Raven Press: New York, 1989, 777-813; R. Singh et al., In vitro metabolism of a potent HIV-protease inhibitor (141W94) using rat, monkey and human liver S9, Rapid Commun. Mass Spectrom. 1996, 10, 1019-1026).
(§4) Metabolic Stability Assay
(§5) Microsomes from a human 50 donor mixed gender pool and 1:1 mixtures of microsomes from CD-1 mouse single-gender pools are purchased from Celsis (Belgium). The enzymatic reaction is performed in a buffer containing an NADPH regeneration system and microsomes with the following end concentrations: 100 mM potassium phosphate buffer (all from Sigma), 1 mg/mL glucose-6-phosphate, 1 mg/mL β-nicotinamide adenine dinucleotide phosphate (NADP), 0.65 mg/mL magnesium chloride, 0.8 units/mL of glucose-6-phosphate dehydrogenase (prediluted with 5 mM citrate buffer), 10 μM compound and 1 mg/ml microsomal protein. Compounds are incubated at 37° C. in duplicates and samples are taken after 0, 5, 10, 20 and 60 minutes. After acetonitrile precipitation (3 volumes), shaking (2 minutes, 600 rpm) followed by centrifugation (10 minutes, 3200 g), the supernatant is dried reconstituted in the suitable solvent (cf. Table 33) and analyzed by HPLC/MS/MS. Metabolic turnover is expressed in % of the initial 0 minutes value and half life T½ (min) is calculated. Verapamil for human and propranolol for mouse are used as reference and are assayed with every experimental set.

[2] = Plasma stability assay, CD-1 mouse plasma; conditions: for Plasma Stability 240 min mouse/(rat) [% remain.]: CD-1 mouse plasma, 10 μM, 37° C.; for half-life at 10 μM: both sexes, CD-1, mouse
Method: (§6) 5. Plasma and Metabolic Stability Assays Example compounds were dissolved in DMSO/H2O 90:10 to a final concentration of 10 mM for plasma stability determination and metabolic stability determination. The assays were conducted according to literature precedents (F. P. Guengerich, Analysis and Characterization of Enzymes; in: Principles and Methods of Toxicology, A. W. Hayes (Ed.) Raven Press: New York, 1989, 777-813; R. Singh et al., In vitro metabolism of a potent HIV-protease inhibitor (141W94) using rat, monkey and human liver S9, Rapid Commun. Mass Spectrom. 1996, 10, 1019-1026). Plasma Stability Assay Human plasma (Blutspendedienst SRK, Basel) and CD-1 mouse plasma (mixed gender pool >50 animals, Innovative Research, Calif., USA) are both sodium citrate stabilized. The assay is performed in triplicates at 10 μM compound concentration and 37° C. Samples are taken at 0, 15, 30, 60, 120 and 240 minutes and stopped by precipitation with 3 volumes of acetonitrile/formic acid 98:2 and shaking (2 minutes, 600 rpm) followed by filtration (−20 mm Hg). The filtrate is collected. The filtrate (100 μL) is evaporated and reconstituted in the suitable solvent (cf. Table 33) to be analyzed by HPLC/MS/MS. The resulting peak area counts are expressed in percent of the 0 value and used to determine the endpoint stability in % and the half life T in minutes. In order to monitor assay integrity the degradation of propantheline is assayed with every experimental set.

[3] = Plasma stability assay, human plasma; conditions: for Plasma Stability 240 min hum [% remain.]: human plasma, 10 μM, 37° C.
Method: as §6

[4] = Metabolic stability assay, human liver microsomes; conditions: for half-life at 10 μM: both sexes, liver microsomes, 1 mg/ml protein, read-out: Metabolic Stability T ½ [min] hum; for half-life at 10 μM / Metabolic Stability 60 min hum [% remain.]: human microsomes, 37° C., 10 μM
Method: as §1, §2, §3, §4, §5

| SMILES | Metabolic Stability 60 min mouse/(rat) [% remain.] [1] [% remain.] | half-life at 10 μM [1] [min] | Plasma Stability 240 min mouse/(rat) [% remain.] [2] [% remain.] | half-life at 10 μM ([2]; plasma) [min] | Plasma Stability 240 min hum [% remain.] [3] [% remain.] | half-life at 10 μM ([3]; human, plasma) [min] | half-life at 10 μM [4] [min] | Metabolic Stability 60 min hum [% remain.] [4] [% remain.] | Metabolic Stability T ½ [min] mouse/(rat) ([1]; microsomes) [min] | Plasma Stability T ½ [min] mouse/(rat) ([2]; plasma) [min] | Plasma Stability T ½ [min] hum ([3]; human, plasma) [min] | Metabolic Stability T ½ [min] hum ([4]; human, microsomes) [min] |
| --- | --- | --- | --- | --- | --- | --- | --- | --- | --- | --- | --- | --- |
| COc1ccc2c(c1)-c1cccc(c1)C(=O)N(C)[C@H](C(=O)NCC(=O)O)CCC(=O)N[C@H](C)CO2 [Ex. 57, 2-({[(10R,15S)-4-methoxy-10,16-dimethyl-12,17-dioxo-8-oxa-11,16-diazatricyclo[16.3.1.0^2,7]docosa-1(22),2,4,6,18,20-hexaen-15-yl]carbonyl}amino)acetic acid] | 100 | > 60 | 74 | > 240 | 100 | > 240 | > 60 | 100 |  |  |  |  |
| COc1ccc2c(c1)-c1cccc(c1)C(=O)N(C)[C@H](C(=O)N(C)CCN(C)C)CCC(=O)N[C@H](C)CO2 [Ex. 59, (10R15S)-N-[2-(dimethylamino)ethyl]-4-methoxy-N,10,16-trimethyl-12,17-dioxo-8-oxa-11,16-diazatricyclo[16.3.1.0^2,7]docosa-1(22),2,4,6,18,20-hexaene-15-carboxamide] |  |  |  |  |  |  |  |  | >60 | >240 | >240 | >60 |
| C[C@H]1COc2cccc(c2)-c2cccc(c2)C(=O)N(C)[C@H](C(=O)O)CCC(=O)N1 [Ex. 69, (9S,14S)-9,15-dimethyl-11,16-dioxo-7-oxa-10,15-diazatricyclo[15.3.1.1^2,6]docosa-1(21),2(22),3,5,17,19-hexaene-14-carboxylic acid] | 100 | > 60 | 45 | 200 | 91 | > 240 | > 60 | 100 |  |  |  |  |
| CNC(=O)[C@@H]1CCC(=O)N[C@@H](C)COc2cccc(c2)-c2cccc(c2)C(=O)N1C [Ex. 70, (9S,14S)-N,9,15-trimethyl-11,16-dioxo-7-oxa-10,15-diazatricyclo[15.3.1.1^2,6]docosa-1(21),2(22),3,5,17,19-hexaene-14-carboxamide] | 77 | > 60 | 61 | > 240 | 99 | > 240 | > 60 | 100 |  |  |  |  |
| C[C@H]1COc2cccc(c2)-c2cccc(c2)C(=O)N(C)[C@H](C(N)=O)CCC(=O)N1 [Ex. 71, (9S,14S)-9,15-dimethyl-11,16-dioxo-7-oxa-10,15-diazatricyclo[15.3.1.1^2,6]docosa-1(21),2(22),3,5,17,19-hexaene-14-carboxamide] | 89 | > 60 | 92 | > 240 | 100 | > 240 | > 60 | 100 |  |  |  |  |
| C[C@H]1COc2cccc(c2)-c2cccc(c2)C(=O)N(C)[C@H](C(=O)Nc2ccccc2)CCC(=O)N1 [Ex. 72, (9S,14S)-9,15-dimethyl-11,16-dioxo-N-phenyl-7-oxa-10,15-diazatricyclo[15.3.1.1^2,6] docosa-1(21),2(22),3,5,17,19-hexaene-14-carboxamide] | 30 | 35 | 65 | > 240 | 100 | > 240 | 22 | 14 |  |  |  |  |
| C[C@H]1COc2cccc(c2)-c2cccc(c2)C(=O)N(C)[C@H](C(=O)NCc2cccc3ccccc23)CCC(=O)N1 [Ex. 74, (9S,14S)-9,15-dimethyl-N-(1-naphthylmethyl)-11,16-dioxo-7-oxa-10,15-diazatricyclo[15.3.1.1^2,6]docosa-1(21),2(22),3,5,17,19-hexaene-14-carboxamide] | 0 | 3 | 67 | > 240 | 100 | > 240 | 7 | 1 |  |  |  |  |
| C[C@H]1COc2cccc(c2)-c2cccc(c2)C(=O)N(C)[C@H](C(=O)NCc2cccnc2)CCC(=O)N1 [Ex. 75, (9S,14S)-9,15-dimethyl-11,16-dioxo-N-(3-pyridinylmethyl)-7-oxa-10,15-diazatricyclo[15.3.1.1^2,6]docosa-1(21),2(22),3,5,17,19-hexaene-14-carboxamide] | 48 | 53 | 55 | > 240 | 93 | > 240 | 21 | 12 |  |  |  |  |
| COCCNC(=O)[C@@H]1CCC(=O)N[C@@H](C)COc2cccc(c2)-c2cccc(c2)C(=O)N1C [Ex. 77, (9S,14S)-N-(2-methoxyethyl)-9,15-dimethyl-11,16-dioxo-7-oxa-10,15-diazatricyclo[15.3.1.1^2,6]docosa-1(21),2(22),3,5,17,19-hexaene-14-carboxamide] | 75 | > 60 | 85 | > 240 | 96 | > 240 | 44 | 41 |  |  |  |  |
| C[C@H]1COc2cccc(c2)-c2cccc(c2)C(=O)N(C)[C@H](C(=O)NCC(F)(F)F)CCC(=O)N1 [Ex. 78, (9S,14S)-9,15-dimethyl-11,16-dioxo-N-(2,2,2-trifluoroethyl)-7-oxa-10,15-diazatricyclo[15.3.1.1^2,6]docosa-1(21),2(22),3,5,17,19-hexaene-14-carboxamide] | 92 | > 60 | 86 | > 240 | 100 | > 240 | > 60 | 99 |  |  |  |  |
| C[C@H]1COc2cccc(c2)-c2cccc(c2)C(=O)N(C)[C@H](C(=O)NC2CC2)CCC(=O)N1 [Ex. 79, (9S,14S)-N-cyclopropyl-9,15-dimethyl-11,16-dioxo-7-oxa-10,15-diazatricyclo[15.3.1.1^2,6]docosa-1(21),2(22),3,5,17,19-hexaene-14-carboxamide] | 73 | > 60 | 60 | > 240 | 100 | > 240 | > 60 | 95 |  |  |  |  |
